In ChEMBL document CHEMBL5321198, “Identification, in-vitro anti-plasmodial assessment and docking studies of series of tetrahydrobenzothieno[2,3-d]pyrimidine-acetamide molecular hybrids as potential antimalarial agents” (Eur J Med Chem, 2023):

Experiments:
[1] = Selectivity index, ratio of IC50 for cytotoxicity against human A549 cells to IC50 for antimalarial activity against chloroquine resistant Plasmodium falciparum W2 infected in human erythrocytes; format: functional
Plasmodium falciparum [2] = assay: Antimalarial activity against chloroquine resistant Plasmodium falciparum W2 infected in human erythrocytes assessed as inhibition of parasite growth incubated for 48 hrs by YOYO-1 dye based flow cytometric analysis; format: functional, organism-based; settings: W2, 48 h
[3] = Selectivity index, ratio of IC50 for cytotoxicity against human MDA-MB-231 cells to IC50 for antimalarial activity against chloroquine resistant Plasmodium falciparum W2 infected in human erythrocytes; format: functional
Erythrocyte [4] = assay: Hemolytic activity in human erythrocyte assessed as hemolysis at 25 uM incubated for 3 hrs by microplate reader assay; format: toxicity, cell-based
[5] = Cytotoxicity against human HPL1D cells incubated for 24 hrs by MTT assay; format: toxicity, cell-based
Erythrocyte [6] = assay: Cytotoxicity against human erythrocyte at 3 to 100 uM incubated for 3 hrs by microplate reader assay; format: toxicity, cell-based; settings: dose 3-100 µM
[7] = Selectivity index, ratio of IC50 for cytotoxicity against human HPL1D cells to IC50 for antimalarial activity against chloroquine resistant Plasmodium falciparum W2 infected in human erythrocytes; format: toxicity, cell-based; settings: read-out: Ratio IC50
Plasmodium falciparum [8] = assay: Antimalarial activity against chloroquine sensitive Plasmodium falciparum 3D7 infected in human erythrocytes assessed as inhibition of parasite growth incubated for 48 hrs by YOYO-1 dye based flow cytometric analysis; format: functional, organism-based; settings: 3D7, 48 h
A549 = assay: Cytotoxicity against human A549 cells incubated for 24 hrs by MTT assay; format: functional, cell-based; settings: A549, 24 h
Plasmodium falciparum [9] = assay: Resistance index, ratio of IC50 for antimalarial activity against chloroquine resistant Plasmodium falciparum W2 infected in human erythrocytes to IC50 for antimalarial activity against chloroquine sensitive Plasmodium falciparum 3D7 infected in human erythrocytes; format: functional
MDA-MB-231 = assay: Cytotoxicity against human MDA-MB-231 cells incubated for 24 hrs by MTT assay; format: functional, cell-based; settings: MDA-MB-231, 24 h

Row | Structure (SMILES) | Ratio IC50 [1] | IC50 (Plasmodium falciparum [2]) | Ratio IC50 [3] | Activity (Erythrocyte [4]) | IC50 at 24 h [5] | Activity (Erythrocyte [6]) | selectivity ratio [7] | IC50 (Plasmodium falciparum [8]) | IC50 (A549) | Ratio IC50 (Plasmodium falciparum [9]) | IC50 (MDA-MB-231)
1 | COc1ccc(NC(=O)C(c2ccc(OC(F)(F)F)cc2)N2CCN(c3ncnc4sc5c(c34)CCCC5)CC2)cc1 (centres undefined) | 6.08 | 61 nM | 7.56 | Toxic | 28700 nM | Non-Toxic | 472 | 888 nM | 370 nM | 0.068 | 460 nM
2 | O=C(O)C(c1ccc(OC(F)(F)F)cc1)N1CCN(c2ncnc3sc4c(c23)CCCC4)CC1 (centres undefined) | – | > 10000 nM | – | – | – | – | – | – | – | – | –
3 | COc1ccc(NC(=O)C(c2ccc(Cl)c(Cl)c2)N2CCN(c3ncnc4sc5c(c34)CCCC5)CC2)cc1 (centres undefined) | 11.91 | 68 nM | 10.88 | Toxic | 31300 nM | Non-Toxic | 460 | 933 nM | 810 nM | 0.073 | 740 nM
4 | COc1ccc(NC(=O)C(c2ccc(F)c(F)c2)N2CCN(c3ncnc4sc5c(c34)CCCC5)CC2)cc1 (centres undefined) | 5.64 | 133 nM | 2.33 | Toxic | 27200 nM | Non-Toxic | 205 | 728 nM | 750 nM | 0.183 | 310 nM
5 | Cc1ccc(C(C(=O)O)N2CCN(c3ncnc4sc5c(c34)CCCC5)CC2)cc1 (centres undefined) | – | 8520 nM | – | – | – | – | – | – | – | – | –
6 | O=C(O)C(c1ccc(Cl)c(Cl)c1)N1CCN(c2ncnc3sc4c(c23)CCCC4)CC1 (centres undefined) | – | > 10000 nM | – | – | – | – | – | – | – | – | –
7 | COc1ccc(NC(=O)C(c2ccc(C)cc2)N2CCN(c3ncnc4sc5c(c34)CCCC5)CC2)cc1 (centres undefined) | – | 268 nM | – | Toxic | – | Non-Toxic | – | 692 nM | – | 0.387 | –
8 | O=C(O)C(c1ccc(C(F)(F)F)cc1)N1CCN(c2ncnc3sc4c(c23)CCCC4)CC1 (centres undefined) | – | 6630 nM | – | – | – | – | – | – | – | – | –
9 | COc1ccc(NC(=O)C(c2ccc(F)cc2)N2CCN(c3ncnc4sc5c(c34)CCCC5)CC2)cc1 (centres undefined) | – | 171 nM | – | Toxic | – | Non-Toxic | – | 1220 nM | – | 0.173 | –
10 | COc1ccc(NC(=O)C(c2ccc(OC)cc2)N2CCN(c3ncnc4sc5c(c34)CCCC5)CC2)cc1 (centres undefined) | – | 187 nM | – | Toxic | – | Non-Toxic | – | 698 nM | – | 0.268 | –
11 | COc1ccc(NC(=O)C(c2ccc(C(F)(F)F)cc2)N2CCN(c3ncnc4sc5c(c34)CCCC5)CC2)cc1 (centres undefined) | 1.43 | 56 nM | 1.97 | Toxic | 39900 nM | Non-Toxic | 716 | 837 nM | 80 nM | 0.067 | 110 nM
12 | COc1ccc(C(C(=O)O)N2CCN(c3ncnc4sc5c(c34)CCCC5)CC2)cc1 (centres undefined) | – | > 10000 nM | – | – | – | – | – | – | – | – | –
13 | O=C(O)C(c1ccc(F)c(F)c1)N1CCN(c2ncnc3sc4c(c23)CCCC4)CC1 (centres undefined) | – | > 10000 nM | – | – | – | – | – | – | – | – | –
14 | O=C(O)C(c1ccc(F)c(Cl)c1)N1CCN(c2ncnc3sc4c(c23)CCCC4)CC1 (centres undefined) | – | > 10000 nM | – | – | – | – | – | – | – | – | –
15 | COc1ccc(NC(=O)C(c2ccc(F)c(Cl)c2)N2CCN(c3ncnc4sc5c(c34)CCCC5)CC2)cc1 (centres undefined) | 3.43 | 125 nM | 4.15 | Toxic | 36100 nM | Non-Toxic | 288 | 1080 nM | 430 nM | 0.116 | 520 nM
16 | O=C(O)C(c1ccc(F)cc1)N1CCN(c2ncnc3sc4c(c23)CCCC4)CC1 (centres undefined) | – | > 10000 nM | – | – | – | – | – | – | – | – | –
17 | COc1cccc2c1C(=O)c1c(O)c3c(c(O)c1C2=O)C[C@@](O)(C(=O)CO)C[C@@H]3O[C@H]1C[C@H](N)[C@H](O)[C@H](C)O1 [DOXORUBICIN] | – | – | – | – | – | – | – | – | – | – | 5800 nM
